“Also recorded” adds a separate entry of the source. Read-outs that look alike come from different tables or passages of the source.
Assays:
[1] = test system: GII.4 NV polymerase; assay: 5BR reporter assay, GII.4 polymerase; format: cell-based, Human Norovirus; details: for effect on GII.4 polymerase 5BR assay readout (screen): re-screened at 10 and 20 μM final concentrations, FIG. 6A
Experimental: (§1) The 5BR reporter assay to measure the activity of the Norovirus polymerase and other viral polymerases was performed as per Ranjith-Kumar et al. (32). The assay could also be performed with other viral proteins, such as VPg or VP1. Briefly, plasmids expressing RdRp and VPg were co-transfected along with plasmids to express RIG-I or MDA5, as well as the firefly and Renilla luciferase reporters. HEK293T or Huh 7 cells were transfected using Lipofectamine 2000 (Invitrogen, Carlsbad, Calif.) according to the manufacturer's instructions. 24 h prior to transfection, 0.75×10^5 cells were seeded into each well of Costar 96-well plates in DMEM containing 10% FBS. Cells were then typically transfected at 75% confluency with plasmid amounts detailed in the figure legends and complexed with Lipofectamine 2000 as per the manufacturer's instructions (Invitrogen, USA). Vector plasmid (pUNO-MCS) was used to maintain a constant total plasmid DNA per well. To examine the VPg effect on NV RdRp-RIG-I signaling, 293T cells were co-transfected with plasmids expressing RdRp and VPg. At 36 h after transfection, luciferase activity was measured using Dual-Glo Luciferase Assay System (Promega, Madison, Wis.) in Synergy 2 microplate reader (BioTek, Winooski, Vt.).
Where inhibitors were added to the cells for the 5BR assay, they were added 2 h after transfection of the plasmids.
We have previously developed an easily manipulative, cell-based assay to assess RNA synthesis by viral polymerases. The 5BR assay was validated for the 1b HCV polymerase (NS5B) and has since been established for several other viruses that cannot infect cultured human cells (32 and data not shown). The assay works by having the viral polymerase synthesize RNAs, which then act as agonists to activate RIG-I and/or MDA5. Receptor activation induces Firefly luciferase reporter expression which is driven by the interferon beta promoter (FIG. 2A). A Renilla luciferase is expressed in the same cells to report on the transfection efficiency and possible cytopathic effects. The polymerase from the GII.4 strain of Norwalk virus is the prototype in our assay.
The 5BR assay format has been validated for studies of nonnucleoside and nucleoside inhibitors (NNI, NI, respectively) of the 1b and 2a HCV polymerase and how resistant mutations can prevent inhibition (32). Using this format, we performed a proof-of-concept screen for inhibitor of the GII.4 polymerase. […] The hits were re-screened at 10 and 20 μM final concentrations (FIG. 6A). […] This is consistent with the results of Chang et al., (18) although Ribavirin is known to have pleiotropic effects on cellular as well as viral processes (66).

[2] = test system: recombinant GII.4 polymerase (NV RdRp); assay: Differential scanning fluorimetry (DSF) binding to recombinant NV polymerase; parameters: species or system Human Norovirus
Text: Differential Scanning Fluorimetry (DSF)
This method is used to examine the binding of proteins to drugs (31). The principle for the assay is that the thermal denaturation profile of the protein could be changed when it is complexed to the drug. To perform the assay, thermal melting curves of NV RdRp in the presence of inhibitors were obtained in 96-well plates using Stratagene Mx3005P Q-PCR system (Agilent Tachnologies, USA) and the fluorescent dye SYPRO Orange (Invitrogen, Carlsbad, Calif.). To evaluate the binding affinities of inhibitors, different concentrations of various drugs like VX-222, Filibuvir and Ribavirin were mixed with 20 μM purified NV RdRp and 5× concentration of SYPRO Orange. A heating rate of 1.0° C. per min was used from 25 to 90° C., and fluorescence intensity was read at excitation and emission wavelengths of 470 and 550 nm, respectively. Each sample was tested in triplicate, and the results were duplicated in at least two independent assays.

[3] = molecular target: T1, MNV polymerase (Norovirus, UniProt Q80J95); assay: 5BR reporter assay, MNV polymerase; format: cell-based, Mouse norovirus; details: 5BR assay; read-out: EC50, inhibition of MNV polymerase
T1 construct: NS7, the RNA-dependent RNA polymerase (RdRp), and NS5 (VPg), the protein primer; expressed in transfected cells; host or cells: HEK293T or Huh 7
Experimental: as §1
(§2) Where inhibitors were added to the cells for the 5BR assay, they were added 2 h after transfection of the plasmids. […]

[4] = molecular target: GII.4 polymerase-VPg complex; assay: 5BR reporter assay, GII.4 polymerase-VPg complex; format: cell-based, Human Norovirus
Experimental: as §1, §2

[5] = test system: RIG-I signaling; assay: RIG-I signaling in the absence of the NV polymerase; format: cell-based, human; details: absence of the NV polymerase (data not shown)
Experimental: as §1, with “Vt.). […]” for “Vt.).”

Compound	effect on GII.4 polymerase 5BR assay readout (screen) [1]	concentration at which the thermal denaturation profile starts to shift ([2]; nucleoside form) [µM]	effect in the DSF assay ([2]; recombinant GII.4 polymerase)	EC50 ([1]; 5BR assay, polymerase alone (no VPg), read-out: EC50, inhibition of GII4 polymerase) [µM]	EC50 ([1]; HEK293T cells, 5BR assay, read-out: effective concentration for inhibition) [µM]	inhibition of GII.4 NV polymerase activity in Huh7 cells ([1]; Huh7 cells, 5BR assay, GII.4 VP1 co-expressed, FIG. 6C)	EC50 [3] [µM]	EC50 ([4]; 5BR assay, VPg co-expressed, read-out: EC50 with GII.4 polymerase-VPg complex) [µM]	EC50 ([4]; library screen, read-out: EC50, inhibitor of human norovirus polymerase-VPg complex) [µM]	shift of thermal denaturation profile (apparent Tm) of GII.4 polymerase ([2]; absence of VPg, apparent Tm of polymerase alone ~43.5° C.)	effect on RIG-I signaling [5]
NC(=O)c1ncn([C@@H]2O[C@H](CO)[C@@H](O)[C@H]2O)n1 [Ribavirin]	modest inhibitory effect	1									
CCc1cc(CC[C@]2(C3CCCC3)CC(O)=C(Cc3nc4nc(C)cc(C)n4n3)C(=O)O2)cc(CC)n1 [Filibuvir]	no effect; also recorded: did not affect		no effect								
VX-222				~15	~0.1	concentration-dependent inhibition	~15	0.9	< 1	more than 4.5 °C	did not affect

Source: patent US9296719B2, “Compositions and methods for the treatment of norovirus infection” (Indiana University Research and Technology Corporation, priority 2011, dated 2016)
